Test results published in patent US10183059B2, “Method for treating microbial infection” (GENERAL BIOLOGICALS CORPORATION, priority 2015, dated 2019).
No end group written: not given here.

Columns and labels:
[1] = Circular dichroism secondary structure in 85% TFE, BeStSel analysis; format: physicochemical; conditions: CD analyzed by BeStSel
Experimental: The present invention utilized a Circular Dichroism Spectrometer (AVIV Company) to observe the secondary structure of the antimicrobial peptides. Circular dichoism spectra of P-113 and its derivatives were recorded over the wavelength range of 195-260 nm with readings every 1 nm by using a quartz cuvette having 1 mm optical path length. Ellipticities were represented as mean residue molar ellipticity (MRE). P-113, P-113Du and P-113Tri were dissolved in 85% trifluoroethanol (TFE) solution.

[2] = test system: Candida albicans strain SC5314; experiment: Fungal suppression at various concentrations and reaction times, colony count; format: cell-based; conditions: 37° C., 12.5 mM NaOAc
Experimental: To examine the activity of P-113 for killing fungus, fungal suppression assays were carried out at various concentrations or reaction times. Candida albicans strain SC5314 (wild type, WT) was cultivated in the Yeast extract Peptone Dextrose medium (YPD medium) at 30° C. overnight, transferred to 5 ml of fresh YPD culture broth, and then cultivated again for another 5 hours. After fungi were collected by centrifugation, the fungi were washed with 12.5 mM sodium acetate (NaOAc) twice, redissolved in each well of a 96-well plate with 12.5 mM NaOAc (1.5×10^6 cells in 0.1 ml of 12.5 mM NaOAc). Then, the fungi were treated with different concentrations of P-113 for different reaction times at 37° C. Around […] of Phosphate-buffered saline (PBS) was added into each well, took 25 μl of liquid fungi suspension out and inoculated on a solid YPD medium, after being cultivated at 30° C. for 24 hours, the number of colonies were counted.

[3] = test system: SC5314 strain of Candida albicans; experiment: Intracellular ROS assay (DHE, MitoSOX Red, flow cytometry); format: cell-based; conditions: 0.25 μM, 1 h, 37° C.
Experimental: The SC5314 strain of Candida albicans (wild type or WT) were grown overnight in YPD broth at 30° C. The overnight culture was then subcultured into fresh YPD medium and grown for 5 h. Cells were harvested by centrifugation, washed twice with 12.5 mM sodium acetate (NaOAc) and resuspended in 12.5 mM NaOAc to a concentration of 1*10^7 cells/ml. The cells were treated with various AMPs (0.25 μM) for 1 h at 37° C. After treatment, cells were washed twice with 12.5 mM NaOAc. Dihydroethidium (DHE) is a superoxide indicator, and MitoSOX Red (MitoSOX) was introduced for selective detection of superoxide in the mitochondria of live cells. The intracellular ROS was measured using DHE (20 μM) staining for 30 min and MitoSOX Red (5 μM) for 60 min in PBS. Fluorescent detection was performed by flow cytometry.

[4] = test system: SC5314 strain of Candida albicans; experiment: Effect of cell wall disrupting agents on peptide activity, CFU; format: cell-based; conditions: Proteinase K 1 mg/ml, 30 min
Experimental: The SC5314 strain of Candida albicans (wild type or WT) were grown overnight in YPD broth at 30° C. The overnight culture was then subcultured into fresh YPD medium and grown for 5 h. Cells were treated with Proteinase K (1 mg/ml) for 30 min or Zymolyase (5 mg/ml) for 1 h at 30° C., followed by reacting with different concentrations of the peptides for 1 h, respectively. After that, samples were serially diluted in phosphate-buffered saline (PBS) and 15 μl of each diluent was spotted onto YPD agar plates. Colony-forming units were counted after incubation at 30° C. for 24 h. The data were represented as the mean values±SD of three independent experiments.

och1Δ mutant strain = experiment: Susceptibility of och1Δ mutant, CFU; format: cell-based, Candida albicans; conditions: och1Δ versus SN250, 1 h
Experimental: The SN250 and och1Δ mutant strains were grown overnight in YPD broth at 30° C. The overnight culture was then subcultured into fresh YPD medium and grown for 5 h. Cells were treated with different concentration of peptides for 1 h. After treatment, samples were serially diluted in PBS and 15 μl of each diluent was spotted onto YPD agar plates. Colony-forming units were counted after 24 h incubation at 30° C. The data were represented as the mean values±SD of three independent experiments.

[5] = test system: Wild type (WT) Candida albicans; experiment: Salt and pH tolerance of candidacidal activity; format: cell-based
Experimental: Wild type (WT) Candida albicans was cultivated in a YPD medium at 30° C. overnight and then transferred to 5 ml of fresh YPD culture broth, cultivated subsequently for another 5 hours. After the fungi were collected by centrifugation, washed with 12.5 mM sodium acetate twice, redissolved with 12.5 mM NaOAc to yield a fungal concentration of 1.5×10^6 cells/ml. Fifty microliters of liquid fungal suspension was taken out to mix with 50 μl of sequentially diluted antimicrobial peptides and placed in different wells of a 96-well plate allowing to react for 1 hour at 37° C. (as shown in FIG. 4(A). Then, 50 μl of liquid fungal mixture was taken out and 450 μl PBS was added to terminate the reaction. Finally, 25 μl was taken out and inoculated on a solid YPD medium.

C. parapsilosis = format: cell-based
Experimental: (§1) The antimicrobial activities against clinical isolates and drug-resistant strains of P-113 and its derived peptides were examined. The present invention evaluated the effect of P-113 on 15 clinical isolates of fungi belonging to the genus Candida (see Table 1). Clinical isolates were cultivated overnight at 30° C. under shaking in a YPD cultural broth (1% yeast extract, 2% peptone and 2% glucose), cells were centrifuged and washed with YPD, then cultivated again in a YPD culture broth allowing to grow for 5 hours (initial optical density at 600 nm [OD600]˜0.5). Cells were washed with PBS and then collected by centrifugation, redissolved in a culture broth (modified RPMI 1640 medium, LYM), the cell concentration was adjusted to ˜0.1 [OD600]/ml and then treated with P-113. After the mixed solution was cultivated under shaking at 37° C. and 5% CO2 for 24 hours, absorbance measurement (OD value) was performed to determine the minimum inhibitory concentration (MIC).

C. dubliniensis = format: cell-based
Experimental: as §1

[6] = test system: Candida albicans strain SC5314 biofilms; experiment: Biofilm cell viability, XTT reduction assay; format: cell-based; conditions: biofilm cells, 37° C., 1 hr
Experimental: Candida albicans strain SC5314 was cultivated in a YPD medium overnight and then transferred to a fresh YPD culture broth, diluted until the concentration was 3×10^5 cells/ml. 100 μl of liquid fungal suspension was placed in a 96-well plate for cultivation at 37° C. for 24 hours, formed biofilms were washed with sodium acetate (12.5 mM). Then, sequence-diluted antimicrobial peptides P-113, P-113Du and P-113Tri (0-200 μM) were added, reacted at 37° C. for 1 hour, washed with PBS twice. The cellular activity of the biofilms was determined by using XTT (2,3-bis(2-methoxy-4-nitro-5-sulfophenyl)-2H-tetrazolium-5-carboxanilide) reduction assays to analyze the cell survival rate. To perform this reaction, XTT (0.5 mg/ml) and Menadione (0.5 μM) were dissolved in PBS and then added into a 96-well plate formed by biofilms, reacted at 30° C. for 30 minutes, the optical density was measured at wavelength 490 nm (OD490). The cellular activity of the biofilms was represented as a percentage.

Substance: AKRHHGYKRKFH-NH2 [P-113, AKRHHGYKRKFH-NH2]
- content of the α-helical secondary structure [1]: 2.9%
- anti-Candida activity, dependence on concentration and time [2]: time-dependent and dose-dependent
- intracellular ROS formation [3]: induced intracellular ROS formation
- candidacidal activity after proteinase K treatment of cells [4]: failed to kill C. albicans
- susceptibility of och1Δ mutant to peptide (och1Δ mutant strain): resistant
- candidacidal activity ([5]; 12.5 mM sodium acetate, 37° C., 1 hour): exhibited candidacidal activity
- candidacidal activity ([5]; 62.25 and 93.75 mM salt): reduced activity
- candidacidal activity ([5]; pH 4.5): activity was lost
- candidacidal activity ([5]; pH 6 and 8): exhibited candidacidal activity
- Minimum Inhibitory Concentration (C. parapsilosis): 0.78 µg/mL
- Minimum Inhibitory Concentration (C. dubliniensis): 6.25 µg/mL
- concentration causing 50% reduction in the metabolic activity (50% RMA) [6]: > 300 µg/mL
